What was measured:
[1] = system: Canine parvovirus type 2 (CPV2); test: Viability assay of canine fibroblast cells infected with CPV2 (trypan blue exclusion); type: cell-based; conditions: 72 hours post treatment; for cell viability after infection with CPV: added 1 hour after CPV2 infection
Experimental: (§1) Methods: Canine fibroblast cells were cultured in Dulbecco's modified Eagle's medium (DMEM) supplemented with 5% fetal bovine serum, 2 mM L-glutamine, 0.1 mM MEM non-essential amino acids, 1 mM sodium pyruvate, 0.05 mM 2-mercaptoethanol, 10 mM HEPES, 100 units/mL penicillin, and 100 mcg/mL streptomycin, at 38° C. with 5% CO2. Canine parvovirus type 2 (CPV2) was isolated from a fecal sample collected from a naturally infected dog. The virus was propagated on canine fibroblast cells and a titer of 10^13.37 tissue culture infectious doses (TCID50)/mL was used for viability assays. For viability assays, cells were routinely passaged and seeded in 96 well plates at 5×10^4 cells/mL in 200 μL complete DMEM media and incubated overnight at 38° C. with 5% CO2. The media was then removed and cells were infected with CPV2 for 1 hour at 38° C. with 5% CO2. […] A minimum of 3 independent experiments were performed for each assay.
72 hours post treatment, cells were assayed for viability. […] Data shown are Mean±SEM, pooled from three independent experiments.

Canine fibroblast cells = test: Viability of canine fibroblast cells in the absence of CPV infection (trypan blue exclusion); conditions: 1 μM, 72 hours
Experimental: as §1
Data shown are Mean±SEM, pooled from three independent experiments.

Canine parvovirus (CPV) = test: Treatment of puppies naturally infected with CPV, standard veterinary protocol supplemented with oral ferric citrate solution; type: in vivo, dog; conditions: for survival rate: twice daily for up to five days, monitored for 14 days
Experimental: Puppies presenting with symptoms of CPV infection, including vomiting, diarrhea, hematochezia, lethargy, and depression, were tested for CPV infection using IDEXX Laboratories SNAP® Parvo Test per manufacturer's protocols.

| Compound | decrease in survival compared to cells infected with CPV ([1]; 1 μM, CPV-infected cells) [%] | decrease in survival compared to the untreated cells ([1]; 1 μM, CPV-infected cells) [%] | viability of treated versus untreated cells in the absence of CPV infection (Canine fibroblast cells) | survival rate (Canine parvovirus (CPV); 0.22 mg/kg orally, 1/3) [%] | mortality of the smallest puppies (<5 lbs) (Canine parvovirus (CPV); 0.22 mg/kg, lowest concentration tested) | survival rate (Canine parvovirus (CPV); 1.1 mg/kg orally, 2/5) [%] | survival rate (Canine parvovirus (CPV); 2.2 mg/kg (highest concentration) orally, 5/5) [%] | survival from natural infections with CPV with increasing concentrations (Canine parvovirus (CPV); increasing concentrations of ferric citrate (FIG. 3)) | cell viability after infection with CPV ([1]; 1 μM) | cell viability after infection with CPV ([1]; 10 μM) |
| --- | --- | --- | --- | --- | --- | --- | --- | --- | --- | --- |
| CC(=O)N(O)CCCCCNC(=O)CCC(=O)N(O)CCCCCNC(=O)CCC(=O)N(O)CCCCCN [deferoxamine, reference compound] | 23 | 45 | no significant difference |  |  |  |  |  |  |  |
| ferric citrate |  |  |  | 33.33 | not able to prevent mortality | 40 | 100 | increased survival | significant increase | significant increase |

— US20220273707A1, “COMPOSITIONS AND METHODS FOR TREATING CANINE PARVOVIRUS INFECTION” (MoxxiTech, LLC, priority 2021, published 2022)
